Laboratory results taken from patent US10640534B2 (Agios Pharmaceuticals, Inc., priority 2012, dated 2020).

Columns and labels:
HT1080 cells = assay: Cellular assay, inhibition of 2-HG production in HT1080 cells; assay type: cell-based
Method: Cells (HT1080 or U87MG) are grown in T125 flasks in DMEM containing 10% FBS, 1× penicillin/streptomycin and 500 ug/mL G418 (present in U87MG cells only). They are harvested by trypsin and seeded into 96 well white bottom plates at a density of 5000 cell/well in 100 ul/well in DMEM with 10% FBS. […] Cells are incubated overnight at 37° C. in 5% CO2. The next day test compounds are made up at 2× the final concentration and 100 ul are added to each cell well. The final concentration of DMSO is 0.2% and the DMSO control wells are plated in row G. The plates are then placed in the incubator for 48 hours. […] The cell plate is placed back in the incubator for another 24 hours. At 72 hours post compound addition, 10 mL/plate of Promega Cell Titer Glo reagent is thawed and mixed. The cell plate is removed from the incubator and allowed to equilibrate to room temperature. Then 100 ul of Promega Cell Titer Glo reagent is added to each well of media. The cell plate is then placed on an orbital shaker for 10 minutes and then allowed to sit at room temperature for 20 minutes. The plate is then read for luminescence with an integration time of 500 ms.

U87MG cells = assay: Cellular assay, inhibition of 2-HG production in U87MG cells; assay type: cell-based
Summary of the method: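 HT1080 or U87MG cells (U87MG kept with 500 ug/mL G418) seeded at 5000 cells/well and treated with compound at 0.2% final DMSO. Incubated 48 h at 37 °C. 2-HG inhibition determined by LC-MS. Viability read by CellTiter-Glo luminescence at 72 h post-dose.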

IDH1 R132C = IDH1 R132C (Homo sapiens (Human), UniProt O75874, R132C); assay: In vitro NADPH depletion assay for IDH1m R132C inhibitors; assay type: biochemical; conditions: enzyme, read-out: IDH R132C IC50
IDH1 R132C, sequence (O75874 whole entry R132C): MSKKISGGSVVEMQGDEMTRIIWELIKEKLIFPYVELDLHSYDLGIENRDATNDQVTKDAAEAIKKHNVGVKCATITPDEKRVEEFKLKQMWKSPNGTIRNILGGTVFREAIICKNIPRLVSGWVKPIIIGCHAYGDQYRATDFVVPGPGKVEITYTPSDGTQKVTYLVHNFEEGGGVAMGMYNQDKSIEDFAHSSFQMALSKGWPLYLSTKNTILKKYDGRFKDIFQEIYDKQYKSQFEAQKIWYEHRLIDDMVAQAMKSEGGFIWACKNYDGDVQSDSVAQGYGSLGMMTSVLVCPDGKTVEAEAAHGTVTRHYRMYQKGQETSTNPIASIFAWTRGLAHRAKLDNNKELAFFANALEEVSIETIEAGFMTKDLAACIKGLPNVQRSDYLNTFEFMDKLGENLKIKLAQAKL
Method: A test compound is prepared as 10 mM stock in DMSO and diluted to 50× final concentration in DMSO, for a 50 μl reaction mixture. IDH enzyme activity converting alpha-ketoglutarate to 2-hydroxyglutaric acid is measured using a NADPH depletion assay. In the assay the remaining cofactor is measured at the end of the reaction with the addition of a catalytic excess of diaphorase and resazurin, to generate a fluorescent signal in proportion to the amount of NADPH remaining. […] The reaction is started with the addition of 10 μl of Substrate Mix ([…], 5 mM alpha-ketoglutarate, in Assay Buffer) and the mixture is incubated for 90 minutes at room temperature.
The concentration of NADPH and alpha-ketoglutarate in the Substrate Buffer is 20 μM and 1 mM, respectively.

[1] = inhibition of 2-HG production, HT1080 cells, 48 hours
[2] = inhibition of 2-HG production, U87MG cells, 48 hours

Compound | IC50 (HT1080 cells; Homo sapiens, HT-1080, 48 h) [nM] | IC50 (U87MG cells; Homo sapiens, U-87 MG, 48 h) [nM] | also measured
(S)-1-(4-Cyanopyridin-2-yl)-N—((S)-2-(3,3-difluorocyclobutylamino)-1-(2-fluorophenyl)-2-oxoethyl)-N-(3,5-difluorophenyl)-5-oxopyrrolidine-2-carboxamide [Compound 208] | – | – | IC50 (HT1080 cells; [1]): < 100 nM; IC50 (U87MG cells; [2]): < 100 nM
O=C(NC1CC(F)(F)C1)[C@H](c1ccccc1Cl)N(C(=O)[C@@H]1CCC(=O)N1c1ccncn1)c1cccc(F)c1 [Compound 22] | – | – | IC50 (IDH1 R132C): 100 to 500 nM
O=C(NC1CC(F)(F)C1)[C@H](c1ccccc1Cl)N(C(=O)[C@@H]1CCC(=O)N1c1ccc(Cl)cn1)c1cccc(F)c1 [Compound 48] | 100 to 500 | 100 to 500 | –
(2S)—N-(1-(2-Chlorophenyl)-2-((3,3-difluorocyclobutyl)amino)-2-oxoethyl)-1-(4-cyanopyridin-2-yl)-N-(3-fluoro-5-(methylsulfonyl)phenyl)-5-oxopyrrolidine-2-carboxamide [Compound 110] | – | – | IC50 (HT1080 cells; [1]): < 100 nM; IC50 (U87MG cells; [2]): < 100 nM
CC(C)(C)c1cccc(N(C(=O)[C@@H]2CCC(=O)N2c2nccc(C#N)n2)[C@H](C(=O)NC2CC(F)(F)C2)c2ccccc2Cl)c1 [Compound 165, (S)—N-(3-(tert-Butyl)phenyl)-N—((S)-1-(2-chlorophenyl)-2-((3,3-difluorocyclobutyl)amino)-2-oxoethyl)-1-(4-cyanopyrimidin-2-yl)-5-oxopyrrolidine-2-carboxamide] | < 100 | < 100 | –
O=C(NC1CC(F)C1)[C@H](c1ccccc1Cl)N(C(=O)[C@@H]1CCC(=O)N1c1ncccn1)c1cccc(F)c1 (stereo partly shown) [Compound 49] | 100 to 500 | 100 to 500 | –
O=C(NC1CC(F)(F)C1)[C@H](c1ccccc1Cl)N(C(=O)[C@@H]1CCC(=O)N1c1cc(C(F)(F)F)ccn1)c1cccc(F)c1 [Compound 40] | 100 to 500 | 100 to 500 | –
Cc1cccc(N2C(=O)CC[C@H]2C(=O)N(c2cccc(F)c2)[C@H](C(=O)NC2CC(F)(F)C2)c2ccccc2Cl)n1 [Compound 28] | < 100 | – | –
N#Cc1ccnc(N2C(=O)CC[C@H]2C(=O)N(c2cccc(F)c2)[C@H](C(=O)NC2CC(F)(F)C2)c2c(Cl)cccc2Cl)c1 (single isomer, unassigned) [Compound 63] | < 100 | < 100 | –
O=C(NC1CCCCC1)[C@@H](c1ccccc1Cl)N(C(=O)[C@@H]1CCC(=O)N1c1ncccn1)c1cccc(F)c1 [Compound 6] | 100 to 500 | – | –
(S)-tert-butyl 3-(((S)-1-(2-chlorophenyl)-2-((3,3-difluorocyclobutyl)amino)-2-oxoethyl)(3,5-difluorophenyl)carbamoyl)-5-oxopiperazine-1-carboxylate [Compound 97] | – | – | IC50 (HT1080 cells; [1]): < 100 nM; IC50 (U87MG cells; [2]): < 100 nM
N#Cc1cccc(N(C(=O)[C@@H]2CCC(=O)N2c2nccc(C#N)n2)[C@H](C(=O)NC2CCC(F)(F)CC2)c2ccccc2Cl)c1 [Compound 178, (S)—N—((S)-1-(2-Chlorophenyl)-2-((4,4-difluorocyclohexyl)amino)-2-oxoethyl)-N-(3-cyanophenyl)-1-(4-cyanopyrimidin-2-yl)-5-oxopyrrolidine-2-carboxamide] | 100 to 500 | < 100 | –
N#Cc1cncc(N(C(=O)[C@@H]2CCC(=O)N2c2cc(C#N)ccn2)[C@H](C(=O)NC2CC(F)(F)C2)c2ccccc2)c1 [Compound 212] | < 100 | < 100 | –
N#Cc1ccnc(N2C(=O)CC[C@H]2C(=O)N(c2cccc(-c3cn[nH]c3)c2)[C@H](C(=O)NC2CC(F)(F)C2)c2ccccc2Cl)c1 (single isomer, unassigned) [Compound 200] | < 100 | < 100 | –
O=C(NC1CCC(F)(F)C1)C(c1ccccc1Cl)N(C(=O)[C@@H]1CCC(=O)N1c1ncccn1)c1cccc(F)c1 (mixture of isomers) [Compound 73, (2S)—N-(1-(2-Chlorophenyl)-2-((3,3-difluorocyclopentyl)amino)-2-oxoethyl)-N-(3-fluorophenyl)-5-oxo-1-(pyrimidin-2-yl)pyrrolidine-2-carboxamide] | < 100 | < 100 | –
CS(=O)(=O)c1cccc(N(C(=O)[C@@H]2CCC(=O)N2c2nccc(C#N)n2)C(C(=O)NC2CC(F)(F)C2)c2ccccc2Cl)c1 (mixture of isomers) [Compound 102, (2S)—N-(1-(2-Chlorophenyl)-2-((3,3-difluorocyclobutyl)amino)-2-oxoethyl)-1-(4-cyanopyrimidin-2-yl)-N-(3-(methylsulfonyl)phenyl)-5-oxopyrrolidine-2-carboxamide] | < 100 | 100 to 500 | –
O=C(NC1CCC(F)(F)CC1)[C@@H](c1ccccc1Cl)N(C(=O)[C@@H]1CCC(=O)N1c1ncccn1)c1cccc(F)c1 [Compound 3, (S)—N—((R)-1-(2-Chlorophenyl)-2-((4,4-difluorocyclohexyl)amino)-2-oxoethyl)-N-(3-fluorophenyl)-5-oxo-1-(pyrimidin-2-yl)pyrrolidine-2-carboxamide] | 100 to 500 | – | –
COc1cccnc1N1C(=O)CC[C@H]1C(=O)N(c1cccc(F)c1)[C@H](C(=O)NC1CC(F)(F)C1)c1ccccc1Cl [Compound 17] | 500 to 1000 | 1000 to 2000 | –
O=C(NC1CC(F)(F)C1)[C@H](c1ccccc1Cl)N(C(=O)[C@@H]1CCC(=O)N1c1nccc2ccccc12)c1cccc(F)c1 [Compound 16] | 100 to 500 | 500 to 1000 | –
O=C(NC1CC(F)(F)C1)[C@H](c1ccccc1Cl)N(C(=O)[C@@H]1COCC(=O)N1c1ncccn1)c1cccc(F)c1 [Compound 45] | 100 to 500 | 100 to 500 | –
N#Cc1cccc(N(C(=O)[C@@H]2C[C@@H](O)C(=O)N2c2cc(C#N)ccn2)C(C(=O)NC2CC(F)(F)C2)c2ccccc2Cl)c1 (stereo partly drawn) [Compound 170, (2S,4R)—N-(1-(2-chlorophenyl)-2-((3,3-difluorocyclobutyl)amino)-2-oxoethyl)-N-(3-cyano-phenyl)-1-(4-cyanopyridin-2-yl)-4-hydroxy-5-oxopyrrolidine-2-carboxamide] | – | < 100 | –
N#Cc1ccnc(N2C(=O)[C@H](O)C[C@H]2C(=O)N(c2cccc(F)c2)[C@H](C(=O)NC2CC(F)(F)C2)c2ccccc2Cl)n1 [Compound 120, (2S,4R)—N—((S)-1-(2-Chlorophenyl)-2-((3,3-difluorocyclobutyl)amino)-2-oxoethyl)-1-(4-cyanopyrimidin-2-yl)-N-(3-fluorophenyl)-4-hydroxy-5-oxopyrrolidine-2-carboxamide] | – | 100 to 500 | –
O=C(NC1CC(F)(F)C1)[C@H](c1ccccc1Cl)N(C(=O)[C@@H]1CCC(=O)N1c1nccs1)c1cccc(F)c1 [Compound 14] | – | 100 to 500 | –
N#Cc1ccnc(N2C(=O)CC[C@H]2C(=O)N(c2cccc(F)c2)[C@H](C(=O)NC2CC(F)(F)C2)c2ccccc2F)c1 [Compound 149, (S)-1-(4-Cyanopyridin-2-yl)-N—((S)-2-((3,3-difluorocyclobutyl)amino)-1-(2-fluorophenyl)-2-oxoethyl)-N-(3-fluorophenyl)-5-oxopyrrolidine-2-carboxamide] | – | < 100 | –
N#Cc1ccnc(N2C(=O)CNC[C@H]2C(=O)N(c2cc(F)cc(F)c2)[C@H](C(=O)NC2CC(F)(F)C2)c2ccccc2Cl)c1 [Compound 100, (S)—N—((S)-1-(2-Chlorophenyl)-2-((3,3-difluorocyclobutyl)amino)-2-oxoethyl)-1-(4-cyanopyridin-2-yl)-N-(3,5-difluorophenyl)-6-oxopiperazine-2-carboxamide] | – | < 100 | –
N#Cc1ccnc(N2C(=O)CC[C@H]2C(=O)N(c2cccc(OCCO)c2)[C@H](C(=O)NC2CC(F)(F)C2)c2ccccc2Cl)c1 (single isomer, unassigned) [Compound 130] | – | < 100 | –
Cc1cccnc1N1C(=O)CC[C@H]1C(=O)N(c1cccc(F)c1)[C@H](C(=O)NC1CC(F)(F)C1)c1ccccc1Cl [Compound 15] | 100 to 500 | 100 to 500 | –
N#Cc1ccnc(N2C(=O)CC[C@H]2C(=O)N(c2cccc(OC3CC3)c2)C(C(=O)NC2CC(F)(F)C2)c2ccccc2Cl)n1 (stereo partly drawn) [Compound 192, (2S)—N-(1-(2-Chlorophenyl)-2-((3,3-difluorocyclobutyl)amino)-2-oxoethyl)-1-(4-cyanopyrimidin-2-yl)-N-(3-cyclopropoxyphenyl)-5-oxopyrrolidine-2-carboxamide] | < 100 | < 100 | –
